Legend:
Mbnl1 mRNA = test: Mbnl1 transcript levels in muscle by qRT-PCR; format: in vivo, mouse; conditions: HSALR mice, 9.2 mg/kg (mean) i.v. every 2 weeks x3, day 45; quadriceps, vs PBS-treated HSALR
Procedure: Total RNA from murine gastrocnemius and quadriceps muscle was isolated using the miRNeasy Mini Kit (QIAGEN, Hilden, Germany) according to the manufacturer's instructions. One microgram of RNA was digested with DNase I (Invitrogen, Carlsbad, CA) and reverse transcribed with SuperScript II (Invitrogen) using random hexanucleotides. For subsequent PCR reactions, 20 ng of cDNA was used with GoTaq polymerase (Promega). Specific primers were used to analyze the alternative splicing of Nfix, Atp2a1, and Clcn1 in mouse samples (both muscles). Gapdh levels established the endogenous reference levels using 0.2 ng of cDNA. […] PSR index was defined as value%SI minus X %DSI , divided by […] (SI, splicing inclusion of each sample; DSI, disease splicing inclusion; HSI, healthy splicing inclusion). Overall, PSR indicates the amount in both muscles analyzed. […] Commercial TaqMan probes (QIAGEN) were used for mouse (Mbnl1 and Mbnl2; FAM-labeled probes) and reference (GAPDH; MAX-labeled probe) genes. Results were normalized to Gapdh endogenous gene expression. Expression levels were measured using a QuantStudio 5 Real-Time PCR System (Applied Biosystems, Foster City, CA). […] Mouse handling and experimental procedures followed the European law regarding laboratory animal care and experimentation (2003/65/C.E.) and were approved by Conselleria de Agricultura, […] […]

[1] = system: MBNL1 protein levels in DM1 cells; test: MBNL1 protein levels by QDB in DM1 cells after gymnotic delivery; format: cell-based, human; conditions: for MBNL1 protein levels vs untreated DM1 cells: gymnosis at the EC50 concentration of each compound; for MBNL1 fold change: gymnotic delivery
Procedure: Immortalized MyoD-inducible (doxycycline) DM1 and control fibroblasts were kindly provided by Dr Furling (Institute of Myology, Paris, France).[38] For the activity assay, cells were seeded in 6-well plates at a density of 8 × 10^4 cells/well and grown in DMEM with 4.5 g/L glucose, 1% P/S, and 10% FBS (Sigma, St. Louis, MO). To transdifferentiate fibroblasts into myoblasts by inducing MyoD expression, the cells were plated in muscle differentiation medium containing DMEM with 4.5 g L^−1 glucose, 1% P/S, 2% horse serum, 1% apo-transferrin (10 mg mL^−1), 0.1% insulin (10 mg mL^−1), and 0.02% doxycycline (10 mg mL^−1). In all cases, the cells were grown at 37°C in a humidified atmosphere containing 5% CO2. Transdifferentiation was induced at day 0, and transfection was performed by lipofection with X-tremeGENE HP (Roche, Basel, Switzerland) 24 h later, with antimiRs and test compounds in the cell medium at different concentrations (from 0.4 nM to 5 μM). The medium was replaced with fresh differentiation medium 4 h afterward. In the gymnosis assay, test compounds were added to the culture medium only at the corresponding EC50 concentration. Cells were collected on day 4 of differentiation and were processed for protein extraction.
A 96-well plate QDB assay was used[87] to determine MBNL1 protein levels in all replicates and concentrations of each ON tested. This technique allows for high-throughput screening of low protein concentration samples over conventional western blot (WB) (Figure S9).[88] Cell samples (1 μg/well) and mice samples (2 μg/well) were prepared with 4× loading buffer, denatured (100°C for 5 min) and loaded in QDB plates (Quanticision Diagnostics, Research Triangle Park, NC). For the quantification of in vitro samples, the QDB was performed exactly as described in Moreno et al.[87] Each cell sample was loaded in quadruplicate in two different plates; one was used to detect MBNL1 (it was incubated overnight with primary mouse anti-MBNL1 [1:1,000, Abcam, ab77017]) and the other for GAPDH (it was incubated overnight with primary mouse anti-GAPDH [1:500, Santa Cruz, clone G-9]), which was used here as an endogenous control. For Mbnl1 quantification in mouse muscle tissues, we implemented the following modifications: each sample was loaded in quadruplicate on three different plates. One was used to detect Mbnl1 with a mouse MB1a(4A8) antibody (DSHB, Iowa City, IA) using a 1:200 dilution. A second plate was used to quantify tubulin (endogenous normalization control) with a mouse 12G10 antibody (DSHB) using a 1:1,000 dilution. A third plate was used to quantify IgG signal (negative control to subtract background) using an anti-mouse-IgG secondary antibody (Sigma-Aldrich) at 1:3,500 dilution. This subtraction was necessary due to an unspecific IgG signal could be observed in mouse samples (Figures S10A–S10D). All primary antibodies were detected using horseradish peroxidase-conjugated anti-mouse-IgG secondary antibody (1:5,000 for the anti-mouse plate, 1:2,000 for cell plates, and 1:3,500 for mouse plates [Sigma-Aldrich, MO]). Immunoreactive bands were detected using Pierce ECL Western reagent (Thermo Scientific), and luminescence levels were determined using an Infinite M200 PRO plate reader (Tecan). The validity of this correction for QDB quantification of mouse samples was confirmed by performing a series of experiments determining both the window of linearity of the assay (2–5 μg protein, Figures S10A–S10B) and the comparison with data obtained by WB in a subset of samples (Figures S10E–S10H), obtaining a correlation of 0.9927 for MBNL1 and 0.8678 for tubulin (in the case of quadriceps), and 0.9821 for MBNL1 and 0.9699 for tubulin (in gastrocnemius). For WB assay in quadriceps (Figure S10I), samples were loaded in pools of each treatment to have a representative WB of all the treatments tested. WB assay was performed as described previously.[20]

Row | Substance | Mbnl1 mRNA levels (Mbnl1 mRNA) | MBNL1 protein levels vs untreated DM1 cells [1] | MBNL1 fold change ([1]; 200 nM) | MBNL1 fold change ([1]; 1 μM) | MBNL1 levels, gymnosis compared with transfection ([1]; each compound at its EC50 concentration)
1 | 6aKC-23b (antisense GGUAAUCCCUGGCAAUGUGAU; all phosphorodiamidate morpholino (PMO), T or U not given here; Pip6aKC peptide conjugated) | significant increases in quadriceps | significant increases observed in MBNL1 protein levels | ~2.5 fold |  | 
2 | 6aKC-218 (antisense ACAUGGUUAGAUCAAGCACAA; all phosphorodiamidate morpholino (PMO), T or U not given here; Pip6aKC peptide conjugated) |  | significant increases observed in MBNL1 protein levels |  | ~2 fold | 
3 | 9b2-218 (antisense ACAUGGUUAGAUCAAGCACAA; all phosphorodiamidate morpholino (PMO), T or U not given here; Pip9b2 peptide conjugated) |  | significant increases observed in MBNL1 protein levels |  |  | 
4 | 9b2KC-23b (antisense GGUAAUCCCUGGCAAUGUGAU; all phosphorodiamidate morpholino (PMO), T or U not given here; Pip9b2KC peptide conjugated) |  |  |  |  | identical MBNL1 modulation results by transfection and gymnosis

Reference: publication PMC10514136, “Peptide-conjugated antimiRs improve myotonic dystrophy type 1 phenotypes by promoting endogenous MBNL1 expression” (Molecular Therapy. Nucleic Acids, 2023)
